According to PubChem BioAssay (NCI):
Where “and” joins values, the source holds several entries; their conditions need not be identical. Equal entries are not always repeated.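 Tested at 5 concentrations; 48 h exposure; 96-well plates; endpoints linearly interpolated, else capped at highest concentration. GI50 is the concentration that inhibits growth by half. At the TGI there is no net growth.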

Experiments:
Assay in all cases: NCI anticancer screen, dose series, 48 h
[1] = system: CAKI-1 renal
[2] = system: DU-145 prostate
[3] = system: HCC-2998 colon
[4] = system: HOP-62 NSCLC
[5] = system: HT29 colon
[6] = system: MDA-MB-231 breast
[7] = system: NCI-H23 lung
[8] = system: NCI-H522 lung
[9] = system: SR leukemia
[10] = system: SW-620 colon

Structure (SMILES): Cc1ccccc1N=Nc1c(O)[nH]c2ccccc12
- TGI [1]: > 100 µM
- TGI [2]: > 100 µM
- TGI [3]: > 100 µM
- TGI [4]: > 100 µM
- TGI [5]: > 100 µM
- TGI [6]: > 100 µM
- TGI [7]: > 100 µM
- TGI [8]: > 100 µM
- TGI [9]: > 100 µM
- TGI [10]: > 100 µM

Structure (SMILES): COc1cccc(C2C3=C(COC3=O)N(CCO)c3cc4c(cc32)OCCO4)c1 (configuration not stated)
- GI50 [1]: 0.145 µM
- TGI [1]: > 34.8 µM
- GI50 [2]: 0.157 µM
- TGI [2]: 0.65 µM
- GI50 [3]: 0.0957 µM
- TGI [3]: 0.242 µM
- GI50 [4]: 0.287 µM
- TGI [4]: > 50 µM
- GI50 [5]: 0.124 µM
- TGI [5]: 1.34 µM
- GI50 [6]: 0.257 µM
- TGI [6]: 34.5 µM
- GI50 [7]: 0.15 µM
- TGI [7]: > 50 µM
- GI50 [8]: 0.00807 µM
- TGI [8]: 0.0208 µM
- GI50 [9]: 0.0271 µM
- GI50 [10]: 0.104 µM
- TGI [10]: > 50 µM

Structure (SMILES): N#Cc1c(-c2ccccc2)cc(-c2ccccc2)n(CCCCC(=O)NO)c1=O
- GI50 [1]: 1.61 µM
- TGI [1]: 3.9 µM
- GI50 [2]: 2.96 µM
- TGI [2]: 11.3 µM
- GI50 [3]: 2.65 µM
- TGI [3]: 10.8 µM
- GI50 [4]: 2.24 µM
- TGI [4]: 7.35 µM
- GI50 [5]: 3.51 µM
- TGI [5]: 13.4 µM
- GI50 [6]: 3.27 µM
- TGI [6]: 10.1 µM
- GI50 [7]: 2.4 µM
- TGI [7]: 6.94 µM
- GI50 [8]: 2.06 µM
- TGI [8]: 8.36 µM
- GI50 [9]: 1.32 µM
- TGI [9]: 8.37 µM
- GI50 [10]: 2.95 µM
- TGI [10]: 11.9 µM

Structure (SMILES): COc1ccc(-c2cc(/C=C3\C(=O)Nc4ccc(OC)cc43)[nH]n2)cc1
- GI50 [1]: > 100 µM
- TGI [1]: > 100 µM
- GI50 [2]: > 100 µM
- TGI [2]: > 100 µM
- GI50 [3]: > 100 µM
- TGI [3]: > 100 µM
- GI50 [4]: 10.6 µM
- TGI [4]: > 100 µM
- GI50 [5]: 1.58 µM
- TGI [5]: > 100 µM
- GI50 [6]: > 100 µM
- TGI [6]: > 100 µM
- GI50 [7]: > 100 µM
- TGI [7]: > 100 µM
- GI50 [8]: 11 µM
- TGI [8]: > 100 µM
- GI50 [9]: 0.595 µM
- TGI [9]: > 100 µM
- GI50 [10]: 0.912 µM
- TGI [10]: > 100 µM

Structure (SMILES): C[C@H]1CC[C@@H]2[C@@H](C)[C@H]3[C@H](C[C@H]4[C@@H]5CC=C6C[C@@H](O)CC[C@]6(C)[C@H]5C[C@H](O)[C@]34C)N2C1
- TGI [1]: > 100 µM
- TGI [2]: > 100 µM
- TGI [3]: > 100 µM
- TGI [4]: > 100 µM
- TGI [5]: > 100 µM
- TGI [6]: > 100 µM
- TGI [7]: > 100 µM
- TGI [8]: > 100 µM
- TGI [9]: > 100 µM
- TGI [10]: > 100 µM

Structure (SMILES): N#Cc1cccc(NC(=O)c2oc3ccccc3c2-c2cnn(-c3ccccc3)c2)c1
- GI50 [1]: > 500 µM
- TGI [1]: > 500 µM
- GI50 [2]: > 500 µM
- TGI [2]: > 500 µM
- GI50 [3]: > 500 µM
- TGI [3]: > 500 µM
- GI50 [4]: 320 µM
- TGI [4]: > 500 µM
- GI50 [5]: > 500 µM
- TGI [5]: > 500 µM
- GI50 [6]: 90 µM
- TGI [6]: > 500 µM
- GI50 [7]: > 500 µM
- TGI [7]: > 500 µM
- GI50 [8]: > 500 µM
- TGI [8]: > 500 µM
- GI50 [9]: 148 µM
- TGI [9]: > 500 µM
- GI50 [10]: > 500 µM
- TGI [10]: > 500 µM

Structure (SMILES): N#CN1CCC[C@H]1C(=O)N1CCc2c(-c3[nH]nc4ncccc34)cccc21
- GI50 [1]: < 0.01 µM
- TGI [1]: 1.46 µM
- GI50 [2]: 0.018 µM
- TGI [2]: 11.3 µM
- GI50 [3]: 0.12 µM
- TGI [3]: 11.6 µM
- GI50 [4]: 0.0222 µM
- TGI [4]: 10.6 µM
- GI50 [5]: < 0.01 µM
- TGI [5]: 0.0129 µM
- GI50 [6]: < 0.01 µM
- TGI [6]: 0.177 µM
- GI50 [7]: < 0.01 µM
- TGI [7]: 17.3 µM
- GI50 [8]: < 0.01 µM
- TGI [8]: 0.412 µM
- GI50 [9]: < 0.01 µM
- TGI [9]: 20 µM
- GI50 [10]: < 0.01 µM
- TGI [10]: 13.5 µM

Structure (SMILES): CC(=O)OCC1OC(OC2=C(CC=C(Cl)Cl)C(=O)c3ccccc3C2=O)C(OC(C)=O)C(OC(C)=O)C1OC(C)=O (configuration not stated)
- GI50 [1]: 4.91 µM
- TGI [1]: 17.6 µM
- GI50 [2]: 11.8 µM
- TGI [2]: 24.1 µM
- GI50 [3]: 6.96 µM
- TGI [3]: 20.9 µM
- GI50 [4]: 18.5 µM
- TGI [4]: 34.4 µM
- GI50 [5]: 16 µM
- TGI [5]: 60.5 µM
- GI50 [6]: 2.05 µM
- TGI [6]: 5.62 µM
- GI50 [7]: 13.2 µM
- TGI [7]: 36.8 µM
- GI50 [8]: 2.17 µM
- TGI [8]: 5.2 µM
- GI50 [9]: 3.11 µM
- TGI [9]: > 100 µM
- GI50 [10]: 1.74 µM
- TGI [10]: 3.88 µM

Structure (SMILES): C=C1C(=O)O[C@@H]2C[C@@H]1CC[C@@]1(C)O[C@@H]1CC[C@@]1(C)O[C@@H]1CC[C@@]2(C)O
- GI50 [1]: 22.7 µM
- TGI [1]: 72.8 µM
- GI50 [2]: 30.3 µM
- TGI [2]: > 100 µM
- GI50 [3]: 4.21 µM
- TGI [3]: 21.1 µM
- GI50 [4]: 32.9 µM
- TGI [4]: > 100 µM
- GI50 [5]: 21 µM
- TGI [5]: 63.2 µM
- GI50 [6]: 13.7 µM
- TGI [6]: 31.6 µM
- GI50 [7]: 1.58 µM
- TGI [7]: 3.14 µM
- GI50 [8]: 17.5 µM
- TGI [8]: 45.4 µM
- GI50 [9]: 3.12 µM
- TGI [9]: 16.3 µM
- GI50 [10]: 14.1 µM
- TGI [10]: 42.2 µM

Structure (SMILES): CCN(CC)C(=S)SC1CCOP(=O)(N(CCCl)CCCl)N1C (configuration not stated)
- TGI [1]: > 86.8 µM
- TGI [2]: > 100 µM
- TGI [3]: > 68.7 µM
- TGI [4]: > 100 µM
- TGI [5]: > 100 µM
- TGI [6]: > 100 µM
- TGI [7]: > 100 µM
- TGI [8]: 2.18 µM
- TGI [9]: 50 µM
- TGI [10]: > 34.9 µM

Structure (SMILES): CCc1c(Cl)nc(Cl)nc1Cl
- TGI [1]: 0.404 µM
- TGI [2]: 6.35 µM
- TGI [3]: 0.774 µM
- TGI [4]: 5.81 µM
- TGI [5]: 1.3 µM
- TGI [6]: 2.81 µM
- TGI [7]: 2.06 µM
- TGI [8]: 0.113 µM
- TGI [9]: > 100 µM
- TGI [10]: 1.39 µM

Structure (SMILES): CNc1ccc(-c2cc(=O)oc3ccc(Cl)cc23)cc1
- TGI [1]: > 100 µM
- GI50 [2]: 0.183 µM and 0.155 µM
- GI50 [3]: 0.373 µM and 0.127 µM
- TGI [3]: 17.1 µM
- GI50 [4]: 0.0696 µM and 0.169 µM
- TGI [4]: > 100 µM
- GI50 [5]: 0.297 µM and 0.139 µM
- TGI [5]: 0.496 µM
- GI50 [6]: 1.07 µM and 0.424 µM
- TGI [6]: > 100 µM
- GI50 [7]: 0.311 µM and 0.219 µM
- TGI [7]: > 100 µM
- GI50 [8]: 0.03 µM
- TGI [8]: 0.311 µM
- GI50 [9]: 0.0463 µM
- GI50 [10]: 0.0477 µM and 0.0437 µM
- TGI [10]: > 100 µM

Structure (SMILES): COc1cc([C@@H]2c3cc4c(cc3[C@@H](O[C@@H]3O[C@@H]5CO[C@@H](c6cccs6)O[C@H]5[C@H](O)[C@H]3O)[C@H]3COC(=O)[C@H]23)OCO4)cc(OC)c1O
- GI50 [1]: 0.557 µM
- TGI [1]: 24.2 µM
- GI50 [2]: 0.288 µM
- TGI [2]: 3.43 µM
- GI50 [3]: 0.385 µM
- TGI [3]: 2.02 µM
- GI50 [4]: 0.197 µM
- TGI [4]: 2.34 µM
- GI50 [5]: 0.614 µM
- TGI [5]: 3.66 µM
- GI50 [6]: 1.56 µM
- TGI [6]: 7.43 µM
- GI50 [7]: 0.179 µM
- TGI [7]: 2.6 µM
- GI50 [8]: 0.208 µM
- TGI [8]: 1.4 µM
- GI50 [9]: 0.0101 µM
- TGI [9]: 15 µM
- GI50 [10]: 0.175 µM
- TGI [10]: > 46.1 µM

Structure (SMILES): COc1cc([C@@H]2c3cc4c(cc3[C@H](O)[C@H]3COC(=O)[C@H]23)OCO4)cc(OC)c1OC
- GI50 [1]: < 0.005 µM
- GI50 [2]: < 0.01 µM
- TGI [2]: 0.5 µM
- GI50 [3]: < 0.005 µM
- GI50 [4]: < 0.005 µM
- TGI [4]: > 100 µM and 50 µM and > 75 µM
- GI50 [5]: < 0.01 µM
- GI50 [6]: < 0.01 µM
- GI50 [7]: < 0.01 µM
- TGI [7]: > 100 µM and 50 µM and > 7.43 µM
- GI50 [8]: < 0.01 µM
- TGI [8]: < 0.01 µM
- GI50 [9]: < 0.01 µM
- TGI [9]: < 0.005 µM
- GI50 [10]: < 0.01 µM
- TGI [10]: > 100 µM and 50 µM
